Results from ChEMBL document CHEMBL3351468, “Tritium-labelled isovaleryl-RYYRIK-NH2 as potential antagonist probe for ORL1 nociceptin receptor” (Bioorg Med Chem, 2014).

Assays:
Nociceptin receptor [1] = target: T1, Nociceptin receptor (Homo sapiens, UniProt P41146); assay: Displacement of [3H]]nociceptin from human ORL1 receptor low affinity binding site expressed in African green monkey COS7 cells after 90 mins by topcount analysis
Nociceptin receptor [2] = target: T1, Nociceptin receptor; assay: Partial agonist activity at human ORL1 receptor expressed in African green monkey COS7 cells after 90 mins by topcount analysis; type: cell-based; conditions: COS-7
Nociceptin receptor [3] = target: T1, Nociceptin receptor; assay: Displacement of [3H]]nociceptin from human ORL1 receptor high affinity binding site expressed in African green monkey COS7 cells after 90 mins by topcount analysis
Nociceptin receptor [4] = target: T1, Nociceptin receptor; assay: Displacement of [3H]isoVa-RYYRIK-NH2 from human ORL1 receptor expressed in African green monkey COS7 cells after 90 mins by topcount analysis; type: cell-based, COS-7
Nociceptin receptor [5] = target: T1, Nociceptin receptor; assay: Binding affinity to human ORL1 receptor expressed in African green monkey COS7 cells assessed per mg protein after 90 mins by Scatchard plot analysis; type: cell-based, COS-7
Nociceptin receptor [6] = target: T1, Nociceptin receptor; assay: Displacement of [3H]]nociceptin from human ORL1 receptor expressed in African green monkey COS7 cells after 90 mins by topcount analysis; type: cell-based, COS-7

T1 sequence (P41146 whole entry): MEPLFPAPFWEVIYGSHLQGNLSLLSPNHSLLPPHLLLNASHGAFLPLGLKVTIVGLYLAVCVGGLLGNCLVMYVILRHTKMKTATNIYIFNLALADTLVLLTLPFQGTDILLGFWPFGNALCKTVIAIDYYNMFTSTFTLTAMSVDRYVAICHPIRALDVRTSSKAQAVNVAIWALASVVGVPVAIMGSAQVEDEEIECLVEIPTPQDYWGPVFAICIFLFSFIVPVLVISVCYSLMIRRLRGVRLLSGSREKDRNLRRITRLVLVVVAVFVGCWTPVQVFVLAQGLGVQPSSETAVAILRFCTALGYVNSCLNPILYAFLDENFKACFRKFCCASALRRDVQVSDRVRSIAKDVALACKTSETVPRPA

| Kd (Nociceptin receptor [5]) [nM] | SMILES | IC50 (Nociceptin receptor [1]) [nM] | Activity (Nociceptin receptor [2]) [%] | IC50 (Nociceptin receptor [3]) [nM] | IC50 (Nociceptin receptor [4]) [nM] | IC50 (Nociceptin receptor [6]) [nM] |
| --- | --- | --- | --- | --- | --- | --- |
|  | CC[C@H](C)[C@H](NC(=O)[C@H](CCCNC(=N)N)NC(=O)[C@H](Cc1ccc(O)cc1)NC(=O)[C@H](Cc1ccc(O)cc1)NC(=O)[C@H](CCCNC(=N)N)NC(=O)CC(C)C)C(=O)N[C@@H](CCCCN)C(N)=O | 8.51 | 0 | 0.033 | 2.15 |  |
|  | CC[C@H](C)[C@H](NC(=O)[C@H](CCCNC(=N)N)NC(=O)[C@H](Cc1ccc(O)cc1)NC(=O)[C@H](Cc1ccc(O)cc1)NC(=O)[C@H](CCCNC(=N)N)NC(=O)C(C)C)C(=O)N[C@@H](CCCCN)C(N)=O | 1.67 | 14 | 0.059 |  |  |
| 1.21 | [3H]C(C(=O)N[C@@H](CCCNC(=N)N)C(=O)N[C@@H](Cc1ccc(O)cc1)C(=O)N[C@@H](Cc1ccc(O)cc1)C(=O)N[C@@H](CCCNC(=N)N)C(=O)N[C@H](C(=O)N[C@@H](CCCCN)C(N)=O)[C@@H](C)CC)C([3H])(C)C (stereo partly specified) |  |  |  |  |  |
|  | CCC(=O)N[C@@H](CCCNC(=N)N)C(=O)N[C@@H](Cc1ccc(O)cc1)C(=O)N[C@@H](Cc1ccc(O)cc1)C(=O)N[C@@H](CCCNC(=N)N)C(=O)N[C@H](C(=O)N[C@@H](CCCCN)C(N)=O)[C@@H](C)CC |  | 46 |  |  | 1.39 |
|  | CC[C@H](C)[C@H](NC(=O)[C@H](CCCN=C(N)N)NC(=O)[C@H](Cc1ccc(O)cc1)NC(=O)[C@H](Cc1ccc(O)cc1)NC(=O)[C@H](CCCN=C(N)N)NC(C)=O)C(=O)N[C@@H](CCCCN)C(N)=O |  | 60 |  |  |  |
